Test results published in publication PMC4971072, “Chemically Homogenous Compounds with Antagonistic Properties at All α1-Adrenoceptor Subtypes but not β1-Adrenoceptor Attenuate Adrenaline-Induced Arrhythmia in Rats” (Frontiers in Pharmacology, 2016).
Where a name gives a salt, the structure may show the parent alone. Marks after values point to notes of the source that are not given here.

Tests used:
α1-adrenoceptor = α1-adrenoceptor radioligand binding assay ([3H]-prazosin, rat cerebral cortex); conditions: read-out: Adrenergic receptors Ki α1
Protocol: The α1- and β1-adrenoceptor radioligand binding assay was performed on rat cerebral cortex. […] The cell pellet was resuspended in the Tris–HCl buffer and centrifuged again. Radioligand binding assays were performed in plates (MultiScreen/Millipore). […] The incubation was terminated by rapid filtration through glass fiber filters (Whatman GF/C) using a vacuum manifold (Millipore). The filters were then washed twice with the assay buffer and placed in scintillation vials with a liquid scintillation cocktail. […] All the assays were made in duplicate and the inhibitory constants (Ki) were estimated.
LO–labeled ligand concentration, KD–dissociation constant of labeled ligand

normal ECG in rats = assay: The effect on normal electrocardiogram in rats; assay type: in vivo, rat; conditions: anesthetized rats
Protocol: The experiment was carried out to exclude the influence of tested compounds on normal ECG. […] The influence on QRS complex, PQ interval, heart rate (RR), and QTc interval was determined.

α1A-adrenoceptors = target: T1, α1A-adrenoceptors (Rattus norvegicus, UniProt P43140); assay: Functional bioassay, isolated rat tail artery, noradrenaline contraction; assay type: biochemical; conditions: noradrenaline as agonist
T1 construct: the middle part of the ventral caudal artery was removed; from tissue; host or cells: isolated rat tail (ventral caudal) artery rings
T1 sequence (P43140 1-466): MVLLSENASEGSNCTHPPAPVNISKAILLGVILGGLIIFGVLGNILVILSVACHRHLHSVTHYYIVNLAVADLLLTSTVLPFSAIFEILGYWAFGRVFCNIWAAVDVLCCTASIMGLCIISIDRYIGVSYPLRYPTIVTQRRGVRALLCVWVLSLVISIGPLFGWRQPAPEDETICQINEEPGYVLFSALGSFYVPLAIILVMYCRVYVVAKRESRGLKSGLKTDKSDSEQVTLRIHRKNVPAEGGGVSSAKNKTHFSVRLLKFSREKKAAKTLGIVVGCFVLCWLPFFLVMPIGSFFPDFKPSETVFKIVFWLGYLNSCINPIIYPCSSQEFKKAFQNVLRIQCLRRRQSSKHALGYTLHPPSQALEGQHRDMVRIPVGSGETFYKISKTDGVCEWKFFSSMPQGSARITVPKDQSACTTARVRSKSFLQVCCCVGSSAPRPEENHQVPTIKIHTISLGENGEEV
Protocol: The isolated artery, cut into ~4 mm long rings, was then horizontally put up between two stainless steel hooks (diameter 0.15 mm). One hook was fastened to the bottom of the chamber and the other to an isometric FDT10-A force displacement transducer (DMT Model 750TOBS, Denmark), linked with Powerlab 4/26 analyzer (ADInstruments), and processed by LabChart 7 software. […] The initial optimal tissues tension was set at 0.75 g. Chloroethylclonidine (3 μM) as the preferential α1B-adrenoreceptor alkylating agent was used during incubation and after 30 min it was completely washed off. Through 100 min of equilibration tissues were stimulated with noradrenaline (1 μM) four times with washing out until the contractile response become constant. Two cumulative concentration-response curves to noradrenaline, at an interval of 60 min, were established on each arterial ring both in the presence and absence of antagonist. The incubation with antagonists went on for 30 min. The experiments were carried out in the constant presence of yohimbine (0.1 μM) and propranolol (1 μM) to block α2- and β-adrenoceptors, respectively in order to minimize the involvement of these adrenoceptors in the response to noradrenaline.
Data are means ± S.E.M. of at least 4 separate experiments. To establish Hill slopes for the agonist concentration–response curves and calculate EC50 values, curves were fitted to all the data by non-linear regression. The EC50 value in the presence and absence of antagonists was used to ascertain the concentration ratio (CR). Schild analysis was performed.

[1] = system: adrenaline-induced arrhythmia in rats; assay: Therapeutic antiarrhythmic activity in adrenaline-induced arrhythmia; assay type: in vivo, rat; conditions: i.v. at ED84 at the peak of adrenaline-induced arrhythmia (20 μg/kg)
Protocol: The ECG was recorded constantly for 5 min as well as in the 10th and 15th min of the experiment.

[2] = system: lipid peroxidation in rat brain homogenate; assay: Lipid peroxidation in rat brain homogenate (TBARS), antioxidant effect; assay type: biochemical; conditions: 10^−3 M
Protocol: The rat brain homogenate containing 10 mg tissue/ml was prepared in 0.9% saline. The rates of membrane lipid peroxidation were measured by the formation of thiobarbituric acid reactive substances (TBARS). Rat brain homogenates (1 ml) were incubated at 37°C for 5 min with 10 μl of a tested compound or vehicle. Lipid peroxidation was initiated by the addition of 50 μl of 0.5 mM FeCl2 and 50 μl of 2.0 mM ascorbic acid. After 30 min of incubation, the reaction was stopped by adding 0.1 ml of 0.2% butylated hydroxytoluene (BHT). Thiobarbituric acid reagent was then added and the mixture was heated for 15 min in a boiling water bath.

[3] = i.p. at ED84, 0 min (initial values)

- Ki (α1-adrenoceptor): 22.7 nM
- Schild slope ± S.E.M., α1A (α1A-adrenoceptors): 0.96 ± 0.05
- Kb (α1A-adrenoceptors; read-out: pA2 ± S.E.M., α1A (converted)): 1.23 nM
SMILES: COc1ccccc1N1CCN(CCCOc2cc(C)cc(C)c2C)CC1 [HBK-19, 1N-[3-(2,3,5-trimethylphenoxy)propyl]-4N-(2-methoxyphenyl)piperazine hydrochloride]
- influence on ECG parameters (PQ interval, QRS complex, QTc interval) (normal ECG in rats; i.p. at ED84): without the influence on PQ interval, QRS complex, or QTc interval
- reduction of heart rate (normal ECG in rats; i.p. at ED84, over the period of significant effect vs. initial values): 21−22%
- Beats/min (ECG) (normal ECG in rats; [3]): 355.3 ± 19.7 Beats/min
- PQ (ECG) (normal ECG in rats; [3]): 56.7 ± 0.7 ms
- QRS (ECG) (normal ECG in rats; [3]): 35.7 ± 1.0 ms
- QT (ECG) (normal ECG in rats; [3]): 76.4 ± 8.2 ms
- QTc (ECG, Bazett) (normal ECG in rats; [3]): 186.9 ± 24.6 ms
- Beats/min (ECG) (normal ECG in rats; i.p. at ED84, 5 min): 349.7 ± 25.3 Beats/min
- PQ (ECG) (normal ECG in rats; i.p. at ED84, 5 min): 56.6 ± 0.0 ms
- QRS (ECG) (normal ECG in rats; i.p. at ED84, 5 min): 34.7 ± 1.6 ms
- QT (ECG) (normal ECG in rats; i.p. at ED84, 5 min): 76.9 ± 1.1 ms
- QTc (ECG, Bazett) (normal ECG in rats; i.p. at ED84, 5 min): 185.5 ± 9.5 ms
- Beats/min (ECG) (normal ECG in rats; i.p. at ED84, 10 min): 339.1 ± 21.0 Beats/min
- PQ (ECG) (normal ECG in rats; i.p. at ED84, 10 min): 56.0 ± 0.0 ms
- QRS (ECG) (normal ECG in rats; i.p. at ED84, 10 min): 34.0 ± 0.3 ms
- QT (ECG) (normal ECG in rats; i.p. at ED84, 10 min): 77.5 ± 0.5 ms
- QTc (ECG, Bazett) (normal ECG in rats; i.p. at ED84, 10 min): 184.2 ± 6.9 ms
- Beats/min (ECG) (normal ECG in rats; i.p. at ED84, 15 min): 280.1 ± 1.1^c Beats/min
- PQ (ECG) (normal ECG in rats; i.p. at ED84, 15 min): 58.2 ± 1.8 ms
- QRS (ECG) (normal ECG in rats; i.p. at ED84, 15 min): 32.0 ± 1.2 ms
- QT (ECG) (normal ECG in rats; i.p. at ED84, 15 min): 82.2 ± 2.2 ms
- QTc (ECG, Bazett) (normal ECG in rats; i.p. at ED84, 15 min): 177.6 ± 4.4 ms
- Beats/min (ECG) (normal ECG in rats; i.p. at ED84, 20 min): 277.2 ± 5.0^c Beats/min
- PQ (ECG) (normal ECG in rats; i.p. at ED84, 20 min): 60.1 ± 1.3 ms
- QRS (ECG) (normal ECG in rats; i.p. at ED84, 20 min): 32.7 ± 0.4 ms
- QT (ECG) (normal ECG in rats; i.p. at ED84, 20 min): 84.3 ± 1.1 ms
- QTc (ECG, Bazett) (normal ECG in rats; i.p. at ED84, 20 min): 181.1 ± 4.1 ms
- Beats/min (ECG) (normal ECG in rats; i.p. at ED84, 30 min): 278.2 ± 6.7^c Beats/min
- PQ (ECG) (normal ECG in rats; i.p. at ED84, 30 min): 60.1 ± 1.7 ms
- QRS (ECG) (normal ECG in rats; i.p. at ED84, 30 min): 34.3 ± 0.2 ms
- QT (ECG) (normal ECG in rats; i.p. at ED84, 30 min): 82.2 ± 0.4 ms
- QTc (ECG, Bazett) (normal ECG in rats; i.p. at ED84, 30 min): 177.0 ± 3.0 ms
- Beats/min (ECG) (normal ECG in rats; i.p. at ED84, 40 min): 332.8 ± 18.9 Beats/min
- PQ (ECG) (normal ECG in rats; i.p. at ED84, 40 min): 59.3 ± 0.7 ms
- QRS (ECG) (normal ECG in rats; i.p. at ED84, 40 min): 32.0 ± 3.1 ms
- QT (ECG) (normal ECG in rats; i.p. at ED84, 40 min): 81.5 ± 2.5 ms
- QTc (ECG, Bazett) (normal ECG in rats; i.p. at ED84, 40 min): 192.2 ± 11.2 ms
- Beats/min (ECG) (normal ECG in rats; i.p. at ED84, 50 min): 396.8 ± 31.8 Beats/min
- PQ (ECG) (normal ECG in rats; i.p. at ED84, 50 min): 55.1 ± 0.3 ms
- QRS (ECG) (normal ECG in rats; i.p. at ED84, 50 min): 36.0 ± 1.5 ms
- QT (ECG) (normal ECG in rats; i.p. at ED84, 50 min): 76.5 ± 0.5 ms
- QTc (ECG, Bazett) (normal ECG in rats; i.p. at ED84, 50 min): 196.2 ± 6.9 ms
- Beats/min (ECG) (normal ECG in rats; i.p. at ED84, 60 min): 398.0 ± 32.4 Beats/min
- PQ (ECG) (normal ECG in rats; i.p. at ED84, 60 min): 56.3 ± 1.1 ms
- QRS (ECG) (normal ECG in rats; i.p. at ED84, 60 min): 30.3 ± 1.1 ms
- QT (ECG) (normal ECG in rats; i.p. at ED84, 60 min): 80.2 ± 0.4 ms
- QTc (ECG, Bazett) (normal ECG in rats; i.p. at ED84, 60 min): 206.3 ± 9.6 ms
- therapeutic antiarrhythmic activity (premature ventricular contractions) [1]: restored normal heart rhythm
- inhibition of lipid peroxidation (in words) [2]: inhibited lipid peroxidation
- % reduction of absorbance (% antioxidant activity) ([2]; TBARs at 532 nm): 22.62%
- Absorbance ([2]; TBARs at 532 nm): 0.698 ± 0.007
